The values that follow are results of earlier work, collected in US20110086074A1, “COMBINATIONS OF NIACIN AND AN OXICAM” (DR. REDDY'S LABORATORIES LTD., priority 2008, published 2011).

SMILES strings stand for the structures.

For series [1] the following is noted: n-octanol/pH 7.4 buffer.

`Cc1cnc(NC(=O)C2=C(O)c3ccccc3S(=O)(=O)N2C)s1` [Meloxicam, 4-hydroxy-2-methyl-N-(5-methyl-2-thiazolyl)-2H-1,2-benzothiazine-3-carboxamide-1,1-dioxide]: the Solubility in water result is “practically insoluble in water”. In series [1], the Apparent partition coefficient was 0.1. Further, the Solubility in methanol entry (methanol) was “very slightly soluble in methanol”. Besides, for the setting “strong acids and bases, compared with water”, the “Solubility in strong acids and bases” value was “higher solubility observed in strong acids and bases”.
As to `O=C(O)c1cccnc1` [Niacin, 3-pyridinecarboxylic acid], the Solubility in water result is reported as “very soluble in water”.
